Format in all cases: in vivo
Test [1] has as its system Aphis craccivora. Briefly: Insecticidal activity assay, peanut leaf dip, adult aphid. The conditions noted are these: liquid concentration 8.1 ppm, 48 h. Here is the method:
(§1) The compound of the present invention was dissolved in acetone, and then diluted with water into liquids with gradients of different concentrations (ppm). Corn leaves were soaked in liquids of different concentrations for about 20 seconds, air-dried and then placed in petri dishes where 3rd instar Spodoptera frugiperda were placed, respectively; kale leaves were soaked in liquids of different concentrations for about 20 seconds, air-dried and then placed in petri dishes where 3rd instar Spodoptera frugiperda were placed, respectively; peanut leaves were soaked in liquids of different concentrations for about 20 seconds, air-dried and then placed in petri dishes where Tetranychus urticae (adult mite) and Aphis craccivora (adult aphid) were placed, respectively; water bamboo leaves were soaked in liquids of different concentrations for about 20 seconds, air-dried and then placed in petri dishes where 4th instar Chilo suppressalis were placed, respectively. Each petri dish was placed with 10 insects, covered and then stored at 25° C. in a constant temperature room. The number of dead insects were checked after 48 h. The dead insect rate was calculated by the formula: Death rate (%)=(Number of dead insects/Number of test insects)×100. Furthermore, the experiment was conducted in two replications.

Test [2] relates to Spodoptera exigua. Put plainly: Insecticidal activity assay, kale leaf dip, 3rd instar larvae. The note with it: liquid concentration 0.3 ppm, 48 h.
Test [3] has as its system Spodoptera frugiperda. Put plainly: Assay of insecticidal activity of compositions (synergism), 3rd instar. The conditions noted are these: for pest or weed control at 50 µg/mL: B 50 ppm; for pest or weed control at 1 µg/mL: B 1 ppm. Here is the method: as §1
• Test targets: Spodoptera frugiperda (3rd instar) and Aphis gossypii (adult aphid) […]
(§2) Different ratios within the selected ratio range were set for toxicity determination, and the optimal ratio was selected according to synergistic effects. When the synergistic effect >0, it indicated a synergistic effect; when the synergistic effect is close to 0, it indicated an addition effect; when the synergistic effect <0, it indicated an antagonistic effect.
(§3) [formula] • wherein, P1, P2—Death rate by each individual agent in a mixed formulation.

The test system of test [4] is Aphis gossypii. Put plainly: Assay of insecticidal activity of compositions (synergism), zucchini leaves, adult aphid. The note with it: for pest or weed control at 1 µg/mL: B 1 ppm; for pest or weed control at 5 µg/mL: B 5 ppm. Here is the method: as §1
• Test targets: Spodoptera frugiperda (3rd instar) and Aphis gossypii (adult aphid)
Referring to the above-mentioned Insecticidal activity assay, when the test target was Aphis gossypii, the zucchini leaves were selected.
as §2, §3

Test [5] has as its system Spodoptera frugiperda. Briefly: Insecticidal activity assay, corn leaf dip, 3rd instar larvae. The note with it: liquid concentration 0.3 ppm, 48 h. Here is the method:
as §1

Test [6] deals with Tetranychus urticae. Put plainly: Insecticidal activity assay, peanut leaf dip, adult mite. The conditions noted are these: 48 h. Here is the method:
as §1

The mark [7] stands for this setting: 48 h, read-out: Death rate by individual B.
Where [8] appears, read: in Cucurbita pepo, 48 h, read-out: Death rate by individual B.
The mark [9] stands for this setting: 48 h, B 2 ppm, read-out: Death rate by individual B.

Results on 45 compounds are retold here after patent publication US20260209189A1, “ISOXAZOLINE-SUBSTITUTED BENZAMIDE COMPOUND AND APPLICATION THEREOF” (priority 2022, published 2026).

Where two headings read alike, the source gives them in different places.

With `COC(=O)C(NC(=O)c1ccc(C2=NOC(c3cc(Cl)c(Cl)c(C(F)(F)F)c3)(C(F)(F)F)C2)cc1C)C1CC1` (stereo not drawn) [Compound 118], the Death rate in test [1] turned out to be 40%; in test [2], 60%. As to Emamectin-benzoate [reference compound], in test [3] (B 2 ppm), the “Death rate by individual B” value amounted to 37%. Turning to `CC(c1ccc(C(F)(F)F)nc1)S(C)(=O)=NC#N` (stereo not drawn) [Sulfoxaflor, reference compound], in test [4] (in Cucurbita pepo, 48 h, B 2 ppm, read-out: Death rate by individual B), the pest or weed control at 2 µg/mL is 46%. Regarding `O=C(NC(=O)c1c(F)cccc1F)Nc1cc(Cl)c(OC(F)(F)C(F)C(F)(F)F)cc1Cl` (stereo not drawn) [Lufenuron, reference compound], the pest or weed control at 50 µg/mL in test [3] (setting [7]) was 38%. For the compound `CCN(C(=O)c1cnn(C(C)C(C)C)c1C)c1ccnnc1` (stereo not drawn) [dimpropyridaz, Dimpropyridaz, reference compound], the “Death rate by individual B” value in test [4] (B 2 ppm) is reported as 48%. Take `CN1COCN(Cc2cnc(Cl)s2)/C1=N\[N+](=O)[O-]` [Thiamethoxam, reference compound]: in test [4] (setting [8]), the pest or weed control at 1 µg/mL was 64%.

Regarding `COC(=O)[C@@H](C)N(C)C(=O)c1ccc(C2=NOC(c3cc(Cl)c(Cl)c(C(F)(F)F)c3)(C(F)(F)F)C2)cc1C` (stereo partly drawn) [Compound 4 (2R)], in test [5], the Death rate was determined as 100%. As to Abamectin [reference compound], the “Death rate by individual B” value in test [3] (B 100 ppm) was 25%.

As to `CCn1nc(C)cc1/C(OC(=O)C(C)(C)C)=C(/C#N)c1ccc(C(C)(C)C)cc1` [Cyetpyrafen, reference compound], the “Death rate by individual B” value in test [3] (B 100 ppm) is on record as 30%.

On to `CNC(=O)c1cc(Cl)cc(C)c1NC(=O)c1cc(Br)nn1-c1ncccc1Cl` [Chlorantraniliprole, reference compound], for which, in test [3] (48 h, B 0.5 ppm, read-out: Death rate by individual B), the pest or weed control at 0.5 µg/mL was determined as 50%. As for `CCOC(=O)OC1=C(c2cc(C)ccc2C)C(=O)N[C@]12CC[C@@H](OC)CC2` [Spirotetramat, reference compound], the pest or weed control at 100 µg/mL in test [3] (48 h, B 100 ppm, read-out: Death rate by individual B) is 47%.

In test [6] (liquid concentration 8.1 ppm), `Cc1cc(C2=NOC(c3cc(Cl)c(Cl)c(C(F)(F)F)c3)(C(F)(F)F)C2)ccc1C(=O)NC(C)C(=O)OCCO` (mixture of isomers) [57 (2R)] had a Death rate of 90%.

With `COC(=O)N(C(=O)N1CO[C@@]2(C(=O)OC)Cc3cc(Cl)ccc3C2=N1)c1ccc(OC(F)(F)F)cc1` [Indoxacarb, reference compound], in test [3] (B 0.5 ppm), the “Death rate by individual B” value came out at 36%. In the case of `COC(=O)C(C)NC(=O)c1ccc(C2=NOC(c3cc(Cl)c(OC)c(C(F)(F)F)c3)(C(F)(F)F)C2)cc1C` [Compound 183 (5S, 2R)], the Death rate in test [6] (liquid concentration 8.1 ppm) is on record as 70%. `COC(=O)C(C)NC(=O)c1ccc(C2=NOC(c3cc(Cl)c(Cl)c(C(F)(F)F)c3)(C(F)(F)F)C2)cc1C(C)C` (mixture of isomers) [141 (2R)]: the Death rate in test [5] was 90%. With `CC1(C)[C@H](C(=O)O[C@H](C#N)c2cccc(Oc3ccccc3)c2)[C@@H]1/C=C(\Cl)C(F)(F)F` (racemic) [lambda-cyhalothrin, lambda-Cyhalothrin, reference compound], the pest or weed control at 2 µg/mL in test [3] (setting [9]) amounted to 41%.

For the compound `O=c1c(-c2cccc(C(F)(F)F)c2)c([O-])[n+](Cc2cncnc2)c2ccccn12` [Triflumezopyrim, reference compound], in test [3] (B 100 ppm), the “Death rate by individual B” value came to 33%. On to `CN/C(=N/CC1CCOC1)N[N+](=O)[O-]` (stereo not drawn) [Dinotefuran, reference compound], for which, in test [4] (setting [8]), the pest or weed control at 5 µg/mL was found to be 40%. Still for that read-out and setting: the value for `CC[S+]([O-])c1c(C#N)nn(-c2c(Cl)cc(C(F)(F)F)cc2Cl)c1N` (stereo not drawn) [Ethiprole, reference compound] was 33%.

Turning to `CCN(Cc1ccc(Cl)nc1)/C(=C/[N+](=O)[O-])NC` [Nitenpyram, reference compound], the pest or weed control at 1 µg/mL in test [4] (setting [8]) was determined as 36%. On the same count and under the same terms, the figure for `CCc1nn(C)c(C(=O)NCc2ccc(Oc3ccc(C)cc3)cc2)c1Cl` [Tolfenpyrad, reference compound] is 35%.

As for `COC(=O)C(C)NC(=O)c1ccc(C2=NOC(c3cc(Cl)c(OC)c(C(F)(F)F)c3)(C(F)(F)F)C2)cc1C` (mixture of isomers) [183 (2R)], the Death rate in test [2] and in test [5] was 100% in each case. The compound `Cc1cc(C2=NOC(c3cc(Cl)c(Cl)c(C(F)(F)F)c3)(C(F)(F)F)C2)ccc1C(=O)NC(C)C(=O)O` [Compound 151 (5S, 2R)] registered a Death rate in test [6] (liquid concentration 8.1 ppm) of 100%. Regarding `COC(=O)C(NC(=O)c1ccc(C2=NOC(c3cc(Cl)c(Cl)c(C(F)(F)F)c3)(C(F)(F)F)C2)cc1C)C(C)C` (stereo not drawn) [Compound 111], the Death rate in test [1] worked out at 40%; in test [2], 60%.

As to `COc1cccc(C(=O)NN(C(=O)c2cc(C)cc(C)c2)C(C)(C)C)c1C` [Methoxyfenozide, reference compound], in test [3] (setting [9]), the pest or weed control at 2 µg/mL came out at 31%. In test [6] (liquid concentration 8.1 ppm), `COC(=O)C(CC(N)=O)NC(=O)c1ccc(C2=NOC(c3cc(Cl)c(Cl)c(C(F)(F)F)c3)(C(F)(F)F)C2)cc1C` (mixture of isomers) [179 (2R)] returned a Death rate of 80%. Compound `C=CCOC(=O)C(C)NC(=O)c1ccc(C2=NOC(c3cc(Cl)c(Cl)c(C(F)(F)F)c3)(C(F)(F)F)C2)cc1C` (mixture of isomers) [41 (2R)] displayed a Death rate in test [6] (liquid concentration 0.9 ppm) of 75%.

Turning to `Cc1c(COC(=O)[C@@H]2[C@H](/C=C(\Cl)C(F)(F)F)C2(C)C)cccc1-c1ccccc1` (racemic) [Bifenthrin, reference compound], in test [3] (setting [7]), the pest or weed control at 1 µg/mL is 22%.

Turning to `CCOC(=O)[C@@H](C)NC(=O)c1ccc(C2=NOC(c3cc(Cl)c(Cl)c(C(F)(F)F)c3)(C(F)(F)F)C2)cc1C` (stereo partly drawn) [Compound 30 (2R)], the results for the Death rate in test [6] (liquid concentration 0.9 ppm) and in test [5] were 80% and 90%, respectively.

As to `CC(C)c1cc(Oc2ccccc2)cc(C(C)C)c1NC(=S)NC(C)(C)C` [Diafenthiuron, reference compound], in test [3] (setting [7]), the pest or weed control at 100 µg/mL turned out to be 49%.

On to `N#Cc1nn(-c2c(Cl)cc(C(F)(F)F)cc2Cl)c(N)c1[S+]([O-])C(F)(F)F` (stereo not drawn) [Fipronil, reference compound], for which the pest or weed control at 1 µg/mL in test [3] (setting [7]) turned out to be 43%. Regarding `CC(C)N1C(=O)N(c2ccccc2)CS/C1=N\C(C)(C)C` [Buprofezin, reference compound], the pest or weed control at 10 µg/mL in test [3] (48 h, B 10 ppm, read-out: Death rate by individual B) is 36%.

Turning to `C#CCOC(=O)C(C)NC(=O)c1ccc(C2=NOC(c3cc(Cl)c(Cl)c(C(F)(F)F)c3)(C(F)(F)F)C2)cc1C` (mixture of isomers) [43 (2R)], the Death rate in test [6] (liquid concentration 0.9 ppm) turned out to be 85%. `COC(=O)C(NC(=O)c1ccc(C2=NOC(c3cc(Cl)c(Cl)c(C(F)(F)F)c3)(C(F)(F)F)C2)cc1C)OC` (stereo not drawn) [Compound 124]: the Death rate is on record as 77% in test [6] (liquid concentration 8.1 ppm), 70% in test [2] and 80% in test [5]. Take `COC(=O)C(C)NC(=O)c1ccc(C2=NOC(c3cc(F)c(F)c(C(F)(F)F)c3)(C(F)(F)F)C2)cc1C` (mixture of isomers) [181 (2R)]: the Death rate in test [6] (liquid concentration 8.1 ppm) is given as 70%. Regarding `Cc1cc(C)c(C2=C(OC(=O)CC(C)(C)C)C3(CCCC3)OC2=O)c(C)c1` [Spiromesifen, reference compound], the “Death rate by individual B” value in test [3] (B 100 ppm) is on record as 49%. `COP(=O)(NC(C)=O)SC` (stereo not drawn) [Acephate, reference compound]: in test [3] (setting [7]), the pest or weed control at 300 µg/mL amounted to 38%. With `CCOC(=O)OC1=C(c2c(C)cc(Cl)cc2C)C(=O)N(C)C12CCN(OC)CC2` [Spiropidion, reference compound], in test [3] (B 2 ppm), the “Death rate by individual B” value is 39%.

For the compound `COC(=O)C(C)NC(=O)c1ccc(C2=NOC(c3cc(Cl)c(SC)c(C(F)(F)F)c3)(C(F)(F)F)C2)cc1C` (mixture of isomers) [187 (2R)], the Death rate in test [6] (liquid concentration 8.1 ppm) worked out at 63%. On to `CC1=NNC(=O)N(/N=C/c2cccnc2)C1` [Pymetrozine, reference compound], for which, in test [3] (setting [7]), the pest or weed control at 50 µg/mL was determined as 30%.

Compound `COC(=O)C(Cc1ccccc1)NC(=O)c1ccc(C2=NOC(c3cc(Cl)c(Cl)c(C(F)(F)F)c3)(C(F)(F)F)C2)cc1C` (mixture of isomers) [131 (2R)] registered a Death rate in test [6] (liquid concentration 8.1 ppm) of 80%. On to Spinetoram [reference compound], for which the “Death rate by individual B” value in test [3] (B 0.5 ppm) is recorded as 62%.

`Cc1cc(C2=NOC(c3cc(Cl)c(Cl)c(C(F)(F)F)c3)(C(F)(F)F)C2)ccc1C(=O)N[C@H](C)C(=O)O` (stereo partly drawn) [Compound 151 (2R)]: in test [6] (liquid concentration 8.1 ppm), the Death rate worked out at 100%. Consider `CCOCn1c(-c2ccc(Cl)cc2)c(C#N)c(Br)c1C(F)(F)F` [Chlorfenapyr, reference compound], for which the pest or weed control at 50 µg/mL in test [3] (setting [7]) worked out at 59%.

On to `COC(=O)C(CCSC)NC(=O)c1ccc(C2=NOC(c3cc(Cl)c(Cl)c(C(F)(F)F)c3)(C(F)(F)F)C2)cc1C` (mixture of isomers) [180 (2R)], for which the Death rate in test [6] (liquid concentration 8.1 ppm) is 45%.
